# In patent publication US6372212B1, “Chitinase materials and methods” (ICOS Corporation, priority 1996, dated 2002):
# Read-outs that look alike come from different tables or passages of the source.
# Key:
# [1] = tested on: Aspergillus fumigatus (ATCC no. 16424); assay: Broth assay; format: cell-based
# Description: (§1) In additional experiments, the anti-fungal activity of recombinant human chitinase (produced in COS cells as described in Example 5A) was evaluated in an agar diffusion assay, in a broth assay according to National Committee on Clinical Laboratory Standards, and in a cell wall inhibition assay according to Selitrennikoff, Antimicrob. Agents Chemother., 23:757-765 (1983).
# (§2) In the broth assay, 50 μg/ml of the sample (A: recombinant human chitinase, B: buffer control, C: control protein, D: a bacterial lysate with chitinase activity, or a known anti-fungal agent) was added with a certain concentration of the test fungal organism to RPMI 1640 media buffered with MOPS, pH 7.0. The samples were incubated at 35° C., with shaking at 120 rpm, for 48 hours, and then growth was evaluated by measuring the turbidity of the suspension. The approximate concentrations of the test fungi were as follows: 2.5×10^4 cells/ml of Candida albicans (ATCC no. 90028); 5×10^4 cells/ml of Candida albicans-polyene resistant (ATCC no. 38247); 1 x 10^4 cells/ml of Aspergillus fumigatus (ATCC no. 16424); 1×10^4 cells/ml of Neurospora crassa (ATCC no. 18889); and 1×10^4 cells/ml of Saccharomyces cerevisiae (ATCC no. 26108).
# [2] = tested on: Candida albicans (ATCC no. 90028); assay: Broth assay; format: cell-based; conditions: for IC50: lowest concentration inhibiting growth by at least 50%
# Description: as §1, §2
# [3] = tested on: Candida albicans-polyene resistant (ATCC no. 38247); assay: Broth assay; format: cell-based; conditions: for IC50: Candida, ATCC38247, lowest concentration inhibiting growth by at least 50%
# Description: as §1, §2
# [4] = tested on: Neurospora crassa (ATCC no. 18889); assay: Broth assay; format: cell-based; design: key to Neurospora crassa Growth: 0: No fungal growth; 1: growth is 25% of control; 2: growth is 50% of control; 3: growth is 75% of control; 4: growth equivalent to control; 5: growth is greater than control; conditions: for IC50: Neurospora crassa, ATCC18889, lowest concentration inhibiting growth by at least 50%
# Description: as §1, §2
# [5] = tested on: Saccharomyces cerevisiae (ATCC no. 26108); assay: Broth assay; format: cell-based; design: key to IC50: 0: No fungal growth; 1: growth is 25% of control; 2: growth is 50% of control; 3: growth is 75% of control; 4: growth equivalent to control; 5: growth is greater than control; conditions: for IC50: lowest concentration inhibiting growth by at least 50%
# Description: as §1, §2
# [6] = tested on: Candida albicans (ATCC no. 90028); assay: Agar diffusion assay; format: cell-based; design: key: +: Normal growth, no inhibition of growth observed; −: Inhibited fungal growth, zone of inhibition is observed
# Description: as §1
# In the agar diffusion assay, approximately 1×10^6 cells/ml of Candida albicans (ATCC no. 90028) inoculated into 1.5% agar (RPMI 1640 media buffered with […] (MOPS), pH 7.0. A disk containing 50 μg of the sample (A: recombinant human chitinase, B: buffer control, C: control protein, D: a bacterial lysate with chitinase activity, or a known anti-fungal agent) was placed on the agar, and the zone of growth inhibition was measured. Results are shown in Table 1 below.
# Aspergillus fumigatus = assay: Agar diffusion assay; format: cell-based; design: key: +: Normal growth, no inhibition of growth observed; −: Inhibited fungal growth, zone of inhibition is observed
# [7] = tested on: os-1 cell, mutant strain of Neurospora crassa (protoplasts); assay: os-1 whole cell assay (fungal cell wall biosynthesis inhibition); format: cell-based; design: key to Cell Wall Regenertion: +: Normal cell-wall regeneration; −: Inhibited cell-wall regeneration; key to Cell Growth: +: Normal growth, no inhibition of growth observed; −: Inhibited fungal growth, zone of inhibition is observed; conditions: 25° C., 72 hours
# [8] = Chitotriosidase (chitinase) catalytic activity, fluorogenic substrate; format: biochemical
# Description: Chitotriosidase (chitinase) activity was measured using the fluorogenic substrate 4-methylumbelliferyl-β-D-N,N′,N″-triacetylchitotriose (4 MU-chitotrioside, Sigma Chemical, St. Louis, Mo.) in McIlvain buffer (Hollak et al., supra). Ten μl samples of the recombinant product were combined with 10 itl bovine serum albumin (10 mg/ml), 15 μl fluorogenic substrate (2.71 mM), and 65 μl buffer (0.1M citric acid, 0.2M sodium phosphate, pH 5.2) in a total volume of 100 μl. Reactions were incubated at 37° C. for 15 minutes, then the reaction was stopped with the addition of 2 ml of 0.3M glycine/NaOH buffer (pH 10.6). The fluorescent cleavage product, 4-methylumbelliferone, was monitored with a fluorimeter (SLM-AMINCO Instruments, Inc., Rochester, N.Y.) at 450 nm. […] The known quantity of 4-MU was then correlated to the fluorescence signal from the fluorimeter and linear regression was used to determine a standard curve. The signal produced with diluted purified recombinant chitinase in the assay was then used to interpolate the nm quantity of substrate cleaved by the enzyme during the reaction time. This number was then divided by the concentration of protein to obtain the nm/min per mg protein (determined by A280 and calculated molar extinction coefficient).
# Aspergillus fumigatis = assay: Preliminary in vitro fungal growth inhibition (turbidity of cultures); format: cell-based; conditions: 0, 2.8, 11.25, or 45 μg/ml; 24 hours; 10,000-50,000 CFU per ml
# Description: (§3) In a preliminary experiment, recombinant human chitinase was tested for inhibition of fungal growth in vitro. The two fungi Candida albicans and Aspergillus fumigatis are serious pathogens for immunocompromised patients. Both Candida and Aspergillus were grown in RPMI growth media at 37° C. to approximately 10,000-50,000 colony forming units (CFU) per ml. Recombinant human chitinase (produced in COS cells as described in Example 5A) was added to cultures at 0, 2.8, 11.25, or 45 μg/ml. After 24 hours, fungal growth was assessed by turbidity of cultures. […] The concentration of fungi tested, however, is much higher than the fungal burden seen during fungal infection in vivo. Different results may be obtained under different conditions, e.g., with a lower fungal burden, or when human chitinase is tested in combination with other anti-fungal agents.
# Candida albicans = assay: as above; format: cell-based; conditions: 0, 2.8, 11.25, or 45 μg/ml; 24 hours; 10,000-50,000 CFU per ml
# Description: as §3
# [9] = tested on: os-1 cell, mutant strain of Neurospora crassa (protoplasts); assay: os-1 whole cell assay (fungal cell wall biosynthesis inhibition); format: cell-based; design: key to Cell Wall Regenertion: +: Normal cell-wall regeneration; −: Inhibited cell-wall regeneration; key to Cell Growth: +: Normal growth, no inhibition of growth observed; −: Inhibited fungal growth, zone of inhibition is observed
# Description: as §1
# The os-1 whole cell assay, which identifies inhibitors of fungal cell wall biosynthesis, was conducted essentially according to Selitrennikoff, supra, using an inoculum of 1.5×10^5 protoplasts/ml embedded in agar (Vogel's Medium N, 7.5% sorbitol, 1.5 % sucrose, 10 μg/ml nicotiniamide and 1 % agar) incubated at 25° C. for 72 hours. The cultures were monitored for changes in growth and morphology after disks containing 50 μg of the sample (A: recombinant human chitinase, B: buffer control, C: control protein, D: a bacterial lysate with chitinase activity, or a known anti-fungal agent) were placed on the agar medium. The os-1 cell is a mutant strain of Neurospora crassa that grows as protoplasts without cell walls when incubated under certain conditions at 37° C., but regenerates a cell wall under the appropriate conditions when the temperature is shifted to about 22° C.
# [10] = design: species or system Female Balb/c mice; conditions: mouse, in vivo, iv
# Description: The pharmacokinetics of recombinant human chitinase in mice were determined as follows. Female Balb/c mice, 6-8 weeks old, were injected intravenously in the tail vein with 0.5 mg/kg, 5.0 mg/kg and 50 mg/kg recombinant human chitinase. For each dose, mice were terminally bled at 0.01, 0.25, 1, 8 and 24 hours after injection (2 animals were used per time point per dosage). Serum samples were then assayed for chitinase activity and concentration.
# test fungal organism = assay: Broth assay, overall conclusion; format: cell-based
# Description: as §2
# [11] = lowest concentration inhibiting growth by at least 90%
# [12] = 50 μg/ml, 35° C., 48 hours, turbidity score
compound,measurement,setting,value
Nc1nc(=O)[nH]cc1F [5-fluorocytosine],IC50,"[1]; Aspergillus fumigatus, ATCC16424, lowest concentration inhibiting growth by at least 50%",16 µg/mL
same,IC50,[2],2 μg/ml (growth is 50% of control)
same,IC50,[3],0.06 µg/mL
same,IC50,[4],> 64 µg/mL
same,IC50,"[5]; Saccharomyces cerevisiae, ATCC26108, read-out: IC50",0.125 µg/mL
C[C@@H]1[C@H](O)[C@@H](C)/C=C/C=C/C=C/C=C/C=C/C=C/C=C/[C@H](O[C@@H]2O[C@H](C)[C@@H](O)[C@H](N)[C@@H]2O)C[C@@H]2O[C@](O)(C[C@@H](O)C[C@@H](O)[C@H](O)CC[C@@H](O)C[C@@H](O)CC(=O)O[C@H]1C)C[C@H](O)[C@H]2C(=O)O [amphotericin B],Candida albicans Growth,[6]; 400 ng/disk,−
same,Aspergillus fumigatus Growth,Aspergillus fumigatus; 400 ng/disk,−
same,IC90,[1]; [11],2 μg/ml (growth is 50% of control)
same,IC90,[2]; [11],0.5 µg/mL
same,IC90,[3]; [11],>16 µg/mL
same,IC90,[4]; [11],0.5 µg/mL
same,Cell Growth,[7]; 400 ng/disk,−
same,Cell Wall Regenertion,[7]; 400 ng/disk,+
same,Morphology,[7]; 400 ng/disk,cell debris
same,Radial measurement of inhibited growth from center of disk,[7]; 400 ng/disk,10 mm^e
OC(Cn1cncn1)(Cn1cncn1)c1ccc(F)cc1F [fluconazole],IC50,"[2]; Candida albicans, ATCC90028, read-out: IC50",0.5 µg/mL
same,IC50,[3],16 µg/mL
same,IC50,[4],8 µg/mL
same,IC50,[5],4 µg/mL
C[C@@H]([C@H](N)C(=O)N[C@H](C(=O)O)[C@H]1O[C@@H](n2ccc(=O)[nH]c2=O)[C@H](O)[C@@H]1O)[C@H](O)c1ccc(O)cn1 [nikkomycin Z],Cell Growth,[7]; 1 μg/disk,+
same,Cell Wall Regenertion,[7]; 1 μg/disk,−
same,Morphology,[7]; 1 μg/disk,protoplasts
same,Radial measurements of inhibited cell-wall regeneration from center of disk,[7]; 1 μg/disk,30 mm^d
"A: rH-Chitinase: Recombinant human chitinase (full length, pRc/CMV-MO-13B, SEQ ID NO: 4) produced in COS cells according to Example 5A",chitotriosidase activity,"[8]; purified protein produced in COS cells, 37° C., 15 minutes, pH 5.2",90 nm/min per mg protein
same,fungal growth assessed by turbidity of cultures,Aspergillus fumigatis,"comparable rates, independent of chitinase concentration"
same,fungal growth assessed by turbidity of cultures,Candida albicans,"comparable rates, independent of chitinase concentration"
same,Candida albicans Growth,[6]; 50 μg/disk,+
same,Aspergillus fumigatus Growth,Aspergillus fumigatus; 50 μg/disk,+
same,Aspergillus fumigatus Growth,[1]; [12],3 (growth is 75% of control)
same,Candida albicans Growth,[2]; [12],2 (growth is 50% of control)
same,C. albicans-polyene resistant Growth,[3]; [12],2 (growth is 50% of control)
same,Neurospora crassa Growth,[4]; [12],4
same,Saccharomyes cerevisiae Growth,[5]; [12],2 (growth is 50% of control)
same,conclusion in the os-1 whole cell assay (in words),[9],cell wall specific inhibitor
same,Cell Growth,"[9]; 50 μg/disk, 25° C., 72 hours",+
same,Cell Wall Regenertion,"[9]; 50 μg/disk, 25° C., 72 hours",−
same,Morphology,"[9]; 50 μg/disk, 25° C., 72 hours",protoplasts
same,Radial measurements of inhibited cell-wall regeneration from center of disk,"[9]; 50 μg/disk, 25° C., 72 hours",10 mm^d
same,MRT (total body mean residence time),[10]; 0.5 mg/kg,45 min
same,MRT (total body mean residence time),[10]; 5 mg/kg,45.6 min
same,MRT (total body mean residence time),[10]; 50 mg/kg,159 min
same,conclusion in the broth assay (in words),test fungal organism,mildly anti-fungal
recombinant product: C-terminal truncated human chitinase analog (serine at position 370) expressed in E. coli from the Ara-chitinase plasmid at 25° C.,chitinase catalytic activity,"[8]; E. coli transformants grown at 25° C., in words",exhibited chitinase catalytic activity
